Data published in patent publication US20220340983A1, “SYSTEMS AND ASSAYS FOR IDENTIFYING PU.1 INHIBITORS” (Massachustts Institute of Technology, priority 2019, published 2022).

Legend:
multiple cell lines = assay: Time course of A11 efficacy after application; format: cell-based; details: A11 obtained from several vendors
Excerpt: The gene modulation was reproduced in unmodified BV2 cells and primary mouse microglia. FIG. 14B: Concentration-response curve of A11 from multiple vendors, measured as percent reduction of luminescence. Non-linear fit with Hill's equation with baseline fixed to 0. FIG. 14C: Time course for reduction of mRNA levels of luciferase and il1β as well as luminescence emission in BV2 PU.1-Luciferase cells. FIGS. 14D-14E: Time and concentration-response curve (of pHrodo-labelled particles) for uptake of pHrodo-labelled Zymosan A (FIG. 14D) and mouse myelin in (FIG. 14E) in BV2 cells (left panels, respectively in each FIGS. 14D-14E), and iPS-microglia (right panels, respectively in each FIGS. 14D-14E). FIGS.: 14F-14G: Time and concentration-response curves of A11 (FIG. 14F) and DB2313 (FIG. 14G) of Zymosan A uptake in BV2 cells. Left, middle, and right panels show 1, 2 and 3 hours after compound application, respectively. ANOVA followed by Dunnett's post hoc test versus vehicle, black bars indicate P≤0.05.

iPSC-microglia [1] = assay: Morphology of IFN-gamma activated iPSC-microglia; format: cell-based, human; details: IFN-gamma 25 ng/mL 3 days, co-treated with A11 2.5 μM 2 days
Protocol: (§1) FIGS. 10A-10D show anti-inflammatory properties of A11 after IFNγ treatment on human induced pluripotent stem cell derived microglia. Cell viability is shown in FIG. 10A as measured with CellTiter Glo (Promega) in untreated (vehicle), A11 (2.5 μM) treated, IFNγ (25 ng/mL) treated and A11 +IFNγ treated cells. The morphology (round represent un-activated and elongated, filamentous represent activated by IFNγ) of these same conditions is shown in FIGS. 10B and quantified in FIG. 10C.
(§2) Human induced pluripotent stem cell derived microglia (iPSC-microglia) were activated with IFN-gamma (25 ng/mL, 3 days) and co-treated with A11 (2.5 μM, 2 days).

iPSC-microglia [2] = assay: Uptake of pHrodo-GFP-labelled mouse myelin particles in iPSC-microglia; format: cell-based, human; details: concentration response curve, after 48 h
Protocol: FIGS. 12A-12B show the effects of A11 on cell viability and myelin uptake after 48 h.
(§3) A concentration response curve was performed for cell viability and myelin uptake (FIG. 12A) in iPSC-microglia. Myelin uptake was measured by uptake of pHrodo-GFP-labelled wild-type mouse myelin particles (FIG. 12B). […] The IC50s obtained for these assays was in the low nM range, matching the data obtained in BV2 cells.

iPSC-microglia [3] = assay: mRNA expression (RTqPCR) in IFN-gamma activated iPSC-microglia; format: cell-based, human; details: IFN-gamma 25 ng/mL 3 days, co-treated with A11 2.5 μM 2 days
Protocol: as §1, §2

iPS and ES-microglia [4] = assay: Intracellular neutral lipid accumulation (BODIPY staining) in microglia; format: cell-based, human
Protocol: Top row: Effect of a 2-day treatment with DPBS (10 μL/mL), IFNγ (25 ng/mL), TNFα (25 ng/mL), TGFβ (25 ng/mL), IL1β (25 ng/mL), LPS (25 ng/mL), ATP (100 nM), CD200 (100 ng/mL), IFNα (25 ng/mL), IL12 (5 ng/mL), CX3CL1 (100 ng/mL), CCL5 (100 ng/mL), PMA (10 ng/mL), IFNβ (10 ng/mL), IL33 (10 ng/mL), and IL4 (100 ng/mL). n=52 for DPBS, n=9 for all other inflammatory molecules, except IL33 where n=3. Bottom row: effect after co-application with A11 (20 nM). Scale bar 10 μm. […] Student's unpaired, two sided t-test, ****P≤0.0001, ***P≤0.001, **P≤0.01, *P≤0.05. […] Top row: An increase in number of cells per well with ≥2 BODIPY-positive structures was observed after a 2-day treatment with IFNγ (25 ng/mL), TNFα (25 ng/mL) and IL33 (10 ng/mL) as compared to DPBS treatment. […] Student's unpaired, two-sided t-test, ***P≤0.001, **P≤0.01, *P≤0.05. […] A 2-day treatment with IFNγ (25 ng/mL) caused increase in ATP levels that was reversed by A11 (20 nM) treatment in iPS (left panel) and ES-microglia (right panel). Student's unpaired, twosided t-test, **P≤0.01. […]
FIGS. 17A-17H show results from comparing the effects of multiple inflammatory molecules in iPS-microglia. […] Quantification based on total Vybrant DiI-positive surface area divided by number of Hoechst positive cells per field of view. […]

iPSC-microglia [5] = assay: Cell viability in iPSC-microglia; format: cell-based, human
Protocol: as §1, §2, §3

iPS and ES-microglia [6] = assay: ELISA for IL1β in microglia supernatant; format: cell-based, human
[7] = concentration response curve, iPSC-microglia, after 48 h

Compound: O=S(=O)(NCc1ccncc1)c1ccc(C2CCCCC2)cc1 [Compound A11]
- time after application at which efficacy starts (multiple cell lines): 3 h
- morphology induced by IFN-gamma (iPSC-microglia [1]): reversal of the elongated and filamentous morphology induced by IFN-gamma
- IC50 of myelin uptake (iPSC-microglia [2]): low nM range
- maximal possible reduction in myelin uptake (iPSC-microglia [2]): 50%
- CCL2 mRNA expression levels (iPSC-microglia [3]): reversal of IL1-beta and CCL2 increases to vehicle treated levels
- IL1-beta mRNA expression levels (iPSC-microglia [3]): reversal of IL1-beta and CCL2 increases to vehicle treated levels
- number of cells containing ≥2 BODIPY-positive structures (iPS and ES-microglia [4]; A11 alone <20 nM, iPS and ES-microglia): no effect
- number of cells with ≥2 BODIPY-positive structures, increase by inflammatory molecules (iPS and ES-microglia [4]; iPS-microglia, 2-day treatment with IFNγ, TNFα or IL33 plus A11): reversed this increase
- cell viability (CellTiter Glo) (iPSC-microglia [5]; IFN-gamma 25 ng/mL 3 days, co-treated with A11 2.5 μM 2 days): No significant change
- IC50 of cell viability (iPSC-microglia [5]; [7]): low nM range
- reduction in cell viability (iPSC-microglia [5]; [7]): weak reduction
- supernatant IL1β levels, increase by IFNγ (iPS and ES-microglia [6]; 2-day IFNγ 25 ng/mL plus A11 20 nM, iPS and ES-microglia): reversed
- IL1β concentration in the supernatant (iPS and ES-microglia [6]; A11 alone 20nM, 2-day treatment): did not affect
